Data reported in US9708325B2, “Sulfonimidoylpurinone compounds and derivatives for the treatment and prophylaxis of virus infection” (Hoffmann-La Roche Inc., priority 2015, dated 2017).
In brackets after ≈: the same amount, converted by molar mass. Read-outs that look alike come from different tables or passages of the source.

Columns and labels:
[1] = system: Salmonella typhimurium tester strains (TA1535, TA97, TA98, TA100, and TA102); test: Ames microsuspension assay; type: cell-based; details: five strains, absence and presence of S9
Description: The Ames microsuspension assay examines if a compound causes DNA mutations. The method was based on a modified pre-incubation version described by Kado et al (see references: B. N. Ames, J. McCann, E. Yamasaki, Mutation Res. 1975, 31, 347-364 N.Y. Kado, D. Langley, and E. Eisenstadt, Mutation Res. 1983, 121, 25-32). Five Salmonella typhimurium tester strains (TA1535, TA97, TA98, TA100, and TA102) were treated with the test compound in absence and in presence of an exogenous metabolic activation system (S9). The bacteria were pre-incubated for 1 h, the pre-incubation volume is 210 μL (100 μL of overnight culture, 100 μL of S9 mix (10% S9) or 100 μL phosphate buffer, and 10 μL test compound solution). The overnight cultures were resuspended for the test in cold phosphate buffer. The S9 mix contains potassium chloride, magnesium chloride, sodium phosphate buffered saline, NADP^+ and glucose-6-phosphate. The test tubes are incubated and shaken for 60 minutes at 37° C. 2.2 mL soft agar supplemented with L-histidine and biotin was added afterwards and the content of the tubes were mixed and poured on Vogel-Bonner minimal agar plates.
Three replicate plates for the test compound and negative control or two replicate plates for the positive controls were incubated at 37° C., upside down, for 2 days. Colonies were counted electronically using an automatic image analysis system after having inspected the background lawn for signs of toxicity.
S9 is an in vitro metabolic system which is obtained from liver homogenates by centrifuging them at 9000 g for 20 minutes. It contains CYP450 isoforms, phase-II metabolic enzymes, etc. In the Ames microsuspension assay test, S9 is used to assess mutagenicity of compounds, some of which require metabolic activation to become mutagenic.
Criteria of the Ames microsuspension assay: a positive result is defined as a reproducible, dose-related increase in the number of revertant colonies in at least one of the strains. For TA1535 and TA98, the positive threshold is a 2-fold increase over control. For TA97, TA100 and TA102, the threshold is a 1.5-fold increase.

[2] = Metabolic stability in human liver microsomes; details: 1 μM test compound, 0.5 mg/mL microsomal protein; 6.15 mL/min/kg is the limitation of assay sensitivity
Description: The human microsomal stability assay is used for early assessment of metabolic stability of a test compound in human liver microsomes.
Human liver microsomes (Cat. NO.: 452117, Corning, USA; Cat. NO.: H2610, Xenotech, USA) were preincubated with test compound for 10 minutes at 37° C. in 100 mM potassium phosphate buffer, pH 7.4. The reactions were initiated by adding NADPH regenerating system. The final incubation mixtures contained 1 μM test compound, 0.5 mg/mL liver microsomal protein, 1 mM MgCL2, 1 mM NADP, 1 unit/mL isocitric dehydrogenase and 6 mM isocitric acid in 100 mM potassium phosphate buffer, pH 7.4. After incubation times of 0, 3, 6, 9, 15 and 30 minutes at 37° C., 300 μL of cold ACN (including internal standard) was added to 100 μL incubation mixture to terminate the reaction. Following precipitation and centrifugation, the amount of compound remaining in the samples were determined by LC-MS/MS. Controls of no NADPH regenerating system at zero and 30 minutes were also prepared and analyzed.

LYSA solubility = type: physicochemical; details: for solubility thermodynamic: 0.05 M phosphate buffer, pH 6.5, aqueous buffer, thermodynamic from solid; for LYSA: 0.05 M phosphate buffer (pH 6.5)
Description: LYSA solubility assay is used to determine the aqueous solubility of a compound. Samples were prepared in duplicate from 10 mM DMSO stock solution. […] After one night, the solutions were filtered using a microtiter filter plate. Then the filtrate and its 1/10 dilution were analyzed by HPLC-UV.

hERG channel = hERG channel (Homo sapiens (Human), UniProt Q12809); test: hERG channel inhibition assay (patch-clamp, CHOhERG cells); type: cell-based
Description: The hERG K^+ channels were cloned in humans and stably expressed in a CHO (Chinese hamster ovary) cell line. CHOhERG cells were used for patch-clamp (voltage-clamp, whole-cell) experiments. Cells were stimulated by a voltage pattern to activate hERG channels and conduct IKhERG currents (rapid delayed outward rectifier potassium current of the hERG channel). […] Thereafter, the test compound was added to the preparation at increasing concentrations. For each concentration, an attempt was made to reach a steady-state effect, usually, this was achieved within 3-10 min at which time the next highest concentration was applied. The amplitude and kinetics of IKhERG are recorded in each concentration of the drug which were compared to the control values (taken as 100%). (references: Redfern W S, Carlsson L, Davis A S, Lynch W G, MacKenzie I, Palethorpe S, Siegl P K, Strang I, Sullivan A T, Wallis R, Camm A J, Hammond T G. 2003; Relationships between preclinical cardiac electrophysiology, clinical QT interval prolongation and torsade de pointes for a broad range of drugs: evidence for a provisional safety margin in drug development. Cardiovasc. Res. 58:32-45, Sanguinetti M C, Tristani-Firouzi M. 2006; hERG potassium channels and cardiac arrhythmia. Nature 440:463-469, Webster R, Leishman D, Walker D. 2002; Towards a drug concentration effect relationship for QT prolongation and torsades de pointes. Curr. Opin. Drug Discov. Devel. 5:116-26).

human TLR7 = human TLR7 (Homo sapiens (Human), UniProt Q9NYK1); test: HEK-Blue-hTLR7 cells assay (SEAP reporter); type: cell-based; details: 20 hrs, read-out: HEK-Blue-hTLR7 (EC50 (μM))
Description: (§1) A stable HEK-Blue-hTLR7 cell line was purchased from InvivoGen (Cat.#: hkb-htlr7, San Diego, Calif., USA). These cells were designed for studying the stimulation of human TLR7 by monitoring the activation of NF-κB. […] Therefore the reporter expression was regulated by the NF-κB promoter upon stimulation of human TLR7 for 20 hrs. The cell culture supernatant SEAP reporter activity was determined using QUANTI-Blue™ kit (Cat.#: rep-qb1, Invivogen, San Diego, Ca, USA) at a wavelength of 640 nm, a detection medium that turns purple or blue in the presence of alkaline phosphatase.
(§2) HEK-Blue-hTLR7 cells were incubated at a density of 250,000˜450,000 cells/mL in a volume of 180 μL in a 96-well plate in Dulbecco's Modified Eagle's medium (DMEM) containing 4.5 g/L glucose, 50 U/mL penicillin, […], […], 2 mM L-glutamine, 10% (V/V) heat-inactivated fetal bovine serum for 24 hrs. Then the HEK-Blue-hTLR-7 cells were incubated with addition of 20 μL test compound in a serial dilution in the presence of final DMSO at 1% and perform incubation under 37° C. in a CO2 incubator for 20 hrs. Then 20 μL of the supernatant from each well was incubated with 180 μL Quanti-blue substrate solution at 37° C. for 2 hrs and the absorbance was read at 620˜655 nm using a spectrophotometer. The signalling pathway that TLR7 activation leads to downstream NF-κB activation has been widely accepted, and therefore similar reporter assay was also widely used for evaluating TLR7 agonist (Tsuneyasu Kaisho and Takashi Tanaka, Trends in Immunology, Volume 29, Issue 7, July 2008, […]; Hiroaki Hemmi et al, Nature Immunology 3, 196-200 (2002)).

human TLR8 = human TLR8 (Homo sapiens (Human), UniProt Q9NR97); test: HEK-Blue-hTLR8 cells assay and selectivity index; type: cell-based; details: for Selective index: EC50(TLR8) value/EC50(TLR7) value
Description: as §1, with “HEK-Blue-hTLR8” for “HEK-Blue-hTLR7”, “HEK-Blue-htlr8,” for “hkb-htlr7,”, “TLR8” for “TLR7”
as §2, with “HEK-Blue-hTLR8 cells” for “HEK-Blue-hTLR7 cells”, “the HEK-Blue-hTLR8” for “the HEK-Blue-hTLR-7”, “2 hours” for “2 hrs”, “that TLR8” for “that TLR7”, “evaluating TLR8” for “evaluating TLR7”
The ratio of TLR8 agonism activity compared to TLR7 agonism activity was defined as the selectivity index (EC50 (TLR8) value/EC50(TLR7) value) and calculated accordingly.

[3] = Single dose PK after 1 mg/kg intravenous dosing to rat; type: in vivo, Male Wister-Han Rats; details: IV 1 mpk; for concentration at 4 h: read-out: Mean plasma concentration
Description: The single dose PK in Male Wister-Han Rats was performed to assess pharmacokinetic properties of tested compounds. Two groups of animals were dosed via bolus intravenous (IV) of the respective compound. Blood samples (approximately 20 μL) were collected via Jugular vein or an alternate site at 5 min, 15 min, 30 min, 1 hr, 2 hr, 4 hr, 7 hr and 24 hr post-dose for IV group. Blood samples were placed into tubes containing EDTA-K2 anticoagulant and centrifuged at 5000 rpm for 6 min at 4° C. to separate plasma from the samples. Following centrifugation, the resulting plasma was transferred to clean tubes for bioanalysis on LC/MS/MS. The pharmacokinetic parameters were calculated using non-compartmental module of WinNonlin® Professional 6.2. […] Therefore, compounds of present invention potentially could lead to less dose frequency and lower dose in clinical application.

human TLR7, sequence (Q9NYK1 27-1049): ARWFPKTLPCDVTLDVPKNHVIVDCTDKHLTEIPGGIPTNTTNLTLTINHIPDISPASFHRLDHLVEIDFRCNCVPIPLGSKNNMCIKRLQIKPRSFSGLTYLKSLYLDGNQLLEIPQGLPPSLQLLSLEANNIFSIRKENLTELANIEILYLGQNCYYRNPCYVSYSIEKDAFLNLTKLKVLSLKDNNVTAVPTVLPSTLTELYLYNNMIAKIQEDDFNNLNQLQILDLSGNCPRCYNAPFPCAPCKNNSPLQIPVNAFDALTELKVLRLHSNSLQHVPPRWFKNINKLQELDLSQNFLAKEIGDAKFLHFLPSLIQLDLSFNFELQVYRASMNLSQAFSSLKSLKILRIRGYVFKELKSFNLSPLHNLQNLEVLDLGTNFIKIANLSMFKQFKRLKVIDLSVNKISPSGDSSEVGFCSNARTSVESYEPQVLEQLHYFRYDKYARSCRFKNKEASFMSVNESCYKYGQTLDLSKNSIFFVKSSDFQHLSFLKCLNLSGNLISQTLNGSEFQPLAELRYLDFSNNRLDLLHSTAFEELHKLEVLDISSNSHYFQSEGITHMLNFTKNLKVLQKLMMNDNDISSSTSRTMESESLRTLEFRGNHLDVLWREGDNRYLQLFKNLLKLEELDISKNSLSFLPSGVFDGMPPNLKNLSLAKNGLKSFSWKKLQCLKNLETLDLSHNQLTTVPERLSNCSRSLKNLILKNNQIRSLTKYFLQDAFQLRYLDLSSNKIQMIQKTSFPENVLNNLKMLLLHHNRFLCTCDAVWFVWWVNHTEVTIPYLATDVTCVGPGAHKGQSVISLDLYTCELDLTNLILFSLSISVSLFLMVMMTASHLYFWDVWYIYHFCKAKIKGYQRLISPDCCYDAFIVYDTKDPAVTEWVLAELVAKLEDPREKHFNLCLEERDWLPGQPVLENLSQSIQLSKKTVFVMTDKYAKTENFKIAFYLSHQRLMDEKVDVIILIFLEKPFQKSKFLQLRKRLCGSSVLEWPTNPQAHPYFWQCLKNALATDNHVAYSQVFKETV
human TLR8, sequence (Q9NR97 27-1041): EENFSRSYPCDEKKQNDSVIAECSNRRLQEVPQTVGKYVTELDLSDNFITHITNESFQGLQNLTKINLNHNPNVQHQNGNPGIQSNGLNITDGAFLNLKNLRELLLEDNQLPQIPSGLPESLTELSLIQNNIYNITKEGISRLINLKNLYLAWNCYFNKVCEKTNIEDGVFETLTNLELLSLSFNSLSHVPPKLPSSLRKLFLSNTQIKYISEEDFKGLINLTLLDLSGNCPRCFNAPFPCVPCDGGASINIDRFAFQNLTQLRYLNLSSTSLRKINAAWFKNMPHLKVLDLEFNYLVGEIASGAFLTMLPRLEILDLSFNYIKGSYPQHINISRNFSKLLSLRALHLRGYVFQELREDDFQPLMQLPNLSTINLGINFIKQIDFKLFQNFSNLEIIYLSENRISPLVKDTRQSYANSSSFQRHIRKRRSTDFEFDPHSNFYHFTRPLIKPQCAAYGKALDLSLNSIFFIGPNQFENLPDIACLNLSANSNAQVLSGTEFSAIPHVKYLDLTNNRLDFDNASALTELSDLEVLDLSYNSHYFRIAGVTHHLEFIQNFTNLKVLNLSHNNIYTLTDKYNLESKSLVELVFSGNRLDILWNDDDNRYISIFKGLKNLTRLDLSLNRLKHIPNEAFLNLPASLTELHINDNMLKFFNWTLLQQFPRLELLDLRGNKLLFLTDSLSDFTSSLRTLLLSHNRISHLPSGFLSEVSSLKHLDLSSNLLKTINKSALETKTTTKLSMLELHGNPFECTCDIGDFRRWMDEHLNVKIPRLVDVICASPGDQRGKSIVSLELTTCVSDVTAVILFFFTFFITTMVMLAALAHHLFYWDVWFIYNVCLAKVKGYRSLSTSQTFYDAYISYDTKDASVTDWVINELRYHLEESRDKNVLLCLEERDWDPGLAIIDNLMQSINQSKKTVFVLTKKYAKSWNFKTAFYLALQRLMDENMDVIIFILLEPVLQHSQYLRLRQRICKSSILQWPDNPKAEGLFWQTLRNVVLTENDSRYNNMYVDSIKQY
hERG channel, sequence (Q12809 whole entry): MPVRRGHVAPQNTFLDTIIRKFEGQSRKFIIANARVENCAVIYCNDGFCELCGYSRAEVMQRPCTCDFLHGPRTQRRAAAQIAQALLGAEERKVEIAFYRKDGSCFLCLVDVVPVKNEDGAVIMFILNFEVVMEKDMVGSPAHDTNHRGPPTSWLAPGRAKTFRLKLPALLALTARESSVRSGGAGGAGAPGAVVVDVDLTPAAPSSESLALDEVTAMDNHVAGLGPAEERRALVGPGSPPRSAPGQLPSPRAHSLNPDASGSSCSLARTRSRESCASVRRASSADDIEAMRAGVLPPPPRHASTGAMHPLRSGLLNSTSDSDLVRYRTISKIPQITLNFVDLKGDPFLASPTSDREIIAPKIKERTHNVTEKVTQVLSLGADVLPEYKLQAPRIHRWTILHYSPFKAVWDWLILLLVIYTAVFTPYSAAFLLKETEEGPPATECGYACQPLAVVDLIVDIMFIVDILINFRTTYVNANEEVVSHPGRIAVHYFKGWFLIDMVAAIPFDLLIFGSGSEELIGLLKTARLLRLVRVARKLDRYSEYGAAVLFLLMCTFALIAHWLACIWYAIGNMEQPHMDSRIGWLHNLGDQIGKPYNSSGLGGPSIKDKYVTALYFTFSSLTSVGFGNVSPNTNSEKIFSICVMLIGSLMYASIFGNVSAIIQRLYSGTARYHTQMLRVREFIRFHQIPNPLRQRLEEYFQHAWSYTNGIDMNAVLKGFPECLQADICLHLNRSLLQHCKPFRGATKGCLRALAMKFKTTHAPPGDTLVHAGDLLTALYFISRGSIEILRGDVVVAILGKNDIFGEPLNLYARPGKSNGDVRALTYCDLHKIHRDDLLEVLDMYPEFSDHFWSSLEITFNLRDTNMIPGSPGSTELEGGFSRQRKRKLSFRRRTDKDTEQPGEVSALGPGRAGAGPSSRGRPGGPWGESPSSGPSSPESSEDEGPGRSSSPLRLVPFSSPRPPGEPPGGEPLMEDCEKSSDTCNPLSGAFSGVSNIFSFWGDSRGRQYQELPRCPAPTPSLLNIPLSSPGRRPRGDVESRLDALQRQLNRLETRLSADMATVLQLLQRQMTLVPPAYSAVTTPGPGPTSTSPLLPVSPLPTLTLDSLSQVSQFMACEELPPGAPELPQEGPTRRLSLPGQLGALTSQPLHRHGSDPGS

Compound	Ames result [1]	solubility thermodynamic (LYSA solubility)	LYSA (LYSA solubility)	EC50 (human TLR7)	EC50 (human TLR8)	Selective index (human TLR8)	also measured
CS(=N)(=O)c1nc(N)c2[nH]c(=O)n(Cc3ccccc3)c2n1 (single isomer, unassigned) [Example 1-B, 6-Amino-9-benzyl-2-(methylsulfonimidoyl)-7H-purin-8-one]	negative	98 µg/mL (≈ 308 µM)					Human Liver Microsome Clearance [2]: <6.15 mL/min/kg
CCCS(=N)(=O)c1nc(N)c2[nH]c(=O)n(Cc3ccc(C)cc3)c2n1 (single isomer, unassigned) [Example 29-B, 6-Amino-2-(propylsulfonimidoyl)-9-(p-tolylmethyl)-7H-purin-8-one]	negative		11 µg/mL				Safety ratio (hERG IC20/EC50) (hERG channel; hERG IC20/EC50): >546; IC20 (hERG channel; read-out: hERG IC20): > 10 µM
CS(=N)(=O)c1nc(N)c2[nH]c(=O)n(Cc3ccc(Cl)cc3)c2n1 (stereo not drawn) [Example 13, 6-Amino-9-[(4-chlorophenyl)methyl]-2-(methylsulfonimidoyl)-7H-purin-8-one]		10 µg/mL (≈ 28.3 µM)		0.043 µM	300 µM	6977	
CCS(=N)(=O)c1nc(N)c2[nH]c(=O)n(Cc3ccc(Cl)cc3)c2n1 (stereo not drawn) [Example 70, 6-Amino-9-[(4-chlorophenyl)methyl]-2-(ethylsulfonimidoyl)-7H-purin-8-one]		7 µg/mL (≈ 19.1 µM)		0.057 µM	90 µM	1579	
CS(=O)(=O)c1nc(N)c2[nH]c(=O)n(Cc3ccccc3)c2n1 [Example S-1, reference compound]			0.5 µg/mL	0.37 µM		>2703	AUC0-inf [3]: 0.201 µM·h; CL [3]: 261 mL/min/kg; CO [3]: 534 nM; concentration at 4 h ([3]; 0.083 h): 534 nM; concentration at 4 h ([3]; 0.25 h): 236 nM; concentration at 4 h ([3]; 0.5 h): 125 nM; concentration at 4 h ([3]; 1 h): 38 nM; concentration at 4 h ([3]; 2 h): 9 nM; EC50 (human TLR8; HEK-Blue-hTLR8 cells, SEAP reporter, 20 hrs, read-out: HEK Blue hTLR-8 EC50): > 1000 µM
